Measured values reported in patent publication US7560571B2, “Substituted pyrroles and imidazoles, compositions containing same, manufacturing process therefor and use thereof” (Aventis Pharma S.A., priority 2005, dated 2009).

How the values were obtained:
human FAK = target: T1, human FAK (Homo sapiens, UniProt Q05397); assay: FAK autophosphorylation inhibition, time-resolved fluorescence test (HTRF); format: biochemical; conditions: autophosphorylation of the enzyme, 15 μM ATP, 1 hour at 37° C.; read-out: FAK IC 50
T1 construct: The whole cDNA of human FAK, the N-terminal end of which has been labelled with histidine; made in house; host or cells: baculovirus expression system (pFastBac HTc)
T1 sequence (Q05397 whole entry): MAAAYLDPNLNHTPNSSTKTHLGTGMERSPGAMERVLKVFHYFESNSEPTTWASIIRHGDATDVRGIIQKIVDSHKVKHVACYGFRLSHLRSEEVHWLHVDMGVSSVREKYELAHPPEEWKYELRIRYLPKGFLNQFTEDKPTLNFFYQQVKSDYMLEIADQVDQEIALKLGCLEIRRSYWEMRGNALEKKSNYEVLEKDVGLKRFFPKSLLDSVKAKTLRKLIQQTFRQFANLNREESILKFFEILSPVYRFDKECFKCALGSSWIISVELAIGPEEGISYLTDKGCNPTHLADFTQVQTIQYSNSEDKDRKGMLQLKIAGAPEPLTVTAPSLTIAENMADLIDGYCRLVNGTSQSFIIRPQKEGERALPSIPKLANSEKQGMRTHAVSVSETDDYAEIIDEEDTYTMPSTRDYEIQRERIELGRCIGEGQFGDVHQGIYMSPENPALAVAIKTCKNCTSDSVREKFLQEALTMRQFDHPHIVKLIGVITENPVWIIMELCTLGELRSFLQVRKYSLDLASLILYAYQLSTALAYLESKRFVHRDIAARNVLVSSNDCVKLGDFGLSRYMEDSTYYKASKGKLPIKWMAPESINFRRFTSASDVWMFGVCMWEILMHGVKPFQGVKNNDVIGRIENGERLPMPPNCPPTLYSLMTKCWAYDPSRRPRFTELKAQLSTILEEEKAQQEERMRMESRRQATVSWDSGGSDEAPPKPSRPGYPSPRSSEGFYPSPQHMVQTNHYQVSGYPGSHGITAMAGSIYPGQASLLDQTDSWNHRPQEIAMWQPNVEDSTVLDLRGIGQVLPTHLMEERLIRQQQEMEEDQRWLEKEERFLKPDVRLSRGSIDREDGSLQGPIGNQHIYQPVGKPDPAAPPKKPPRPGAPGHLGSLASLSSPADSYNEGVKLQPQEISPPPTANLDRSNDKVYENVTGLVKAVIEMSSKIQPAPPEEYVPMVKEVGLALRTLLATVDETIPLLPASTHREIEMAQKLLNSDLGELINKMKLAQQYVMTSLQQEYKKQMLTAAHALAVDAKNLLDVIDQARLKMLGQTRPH
Procedure: The inhibitory activity of the compounds on FAK is determined by measuring the inhibition of autophosphorylation of the enzyme using a time-resolved fluorescence test (HTRF).
The whole cDNA of human FAK, the N-terminal end of which has been labelled with histidine, was cloned in a pFastBac HTc baculovirus expression vector. The protein was expressed and purified to about 70% homogeneity.
The kinase activity is determined by incubating the enzyme (6.6 μg/mL) with different concentrations of test compound in a 50 mM Hepes pH=7.2, 10 mM MgCl2, 100 μm Na3VO4, 15 μM ATP buffer for 1 hour at 37° C. The enzymatic reaction is stopped by adding Hepes pH=7.0 buffer containing 0.4 mM KF, 133 mM EDTA, 0.1% BSA and the labelling is performed, for 1 to 2 hours at room temperature, by adding to this buffer an anti-Histidine antibody labelled with XL665 and a tyrosine phosphospecific monoclonal antibody conjugated to europium cryptate (Eu-K). […] The long-lasting signal specific for XL-665 is measured in a Packard Discovery plate counter. All the tests are performed in duplicate and the average of the two tests is calculated. The inhibition of the autophosphorylation activity of FAK with compounds of the invention is expressed as a percentage of inhibition relative to a control whose activity is measured in the absence of test compound. […]

human KDR enzyme = target: T2, human KDR enzyme (Homo sapiens, UniProt P35968); assay: KDR substrate phosphorylation inhibition, scintillation technique; format: biochemical; conditions: GST-KDR cytoplasmic domain, PLCγ substrate, 1 hour at 37° C.; read-out: KDR IC 50
T2 construct: The cytoplasmic domain of the human KDR enzyme was cloned in the form of a GST fusion; GST; made in house; host or cells: SF21 insect cells (baculovirus)
T2 sequence (P35968 786-1356 limits assumed): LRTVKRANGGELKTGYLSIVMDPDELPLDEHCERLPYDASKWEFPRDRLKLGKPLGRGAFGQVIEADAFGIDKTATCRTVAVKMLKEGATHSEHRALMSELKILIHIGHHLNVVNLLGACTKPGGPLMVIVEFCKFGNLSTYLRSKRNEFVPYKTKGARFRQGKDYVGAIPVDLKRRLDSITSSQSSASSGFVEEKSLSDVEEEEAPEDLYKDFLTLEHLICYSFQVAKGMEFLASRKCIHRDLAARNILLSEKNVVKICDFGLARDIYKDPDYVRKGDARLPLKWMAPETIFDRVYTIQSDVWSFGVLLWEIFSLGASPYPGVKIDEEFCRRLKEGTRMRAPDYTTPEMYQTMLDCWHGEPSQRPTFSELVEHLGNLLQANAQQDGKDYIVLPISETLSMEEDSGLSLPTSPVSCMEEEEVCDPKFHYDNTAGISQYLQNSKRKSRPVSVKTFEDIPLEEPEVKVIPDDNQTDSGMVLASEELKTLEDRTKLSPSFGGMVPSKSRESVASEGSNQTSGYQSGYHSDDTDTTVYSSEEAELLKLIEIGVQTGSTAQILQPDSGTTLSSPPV
Procedure: The inhibitory effect of the compounds is determined in an in vitro test of phosphorylation of substrate with the enzyme KDR via a scintillation technique (96-well plate, NEN).
The cytoplasmic domain of the human KDR enzyme was cloned in the form of a GST fusion in the pFastBac baculovirus expression vector. The protein was expressed in the SF21 cells and purified to about 60% homogeneity.
The KDR kinase activity is measured in 20 mM MOPS, 10 mM MgCl2, 10 mM MnCl2, 1 mM DTT, 2.5 mM EGTA, 10 mM b-glycerophosphate, pH=7.2, in the presence of 10 mM MgCl2, 100 μm Na3VO4, 1 mM NaF. 10 μl of the compound are added to 70 μL of kinase buffer containing 100 ng of KDR enzyme at 4° C. The reaction is initiated by adding 20 μL of solution containing 2 μg of substrate (SH2-SH3 fragment of PLCγ expressed in the form of a GST fusion protein), 2 μCi of γ^33P[ATP] and 2 μm of cold ATP. After incubation for 1 hour at 37° C., the reaction is stopped by adding 1 volume (100 μl) of 200 mM EDTA. The incubation buffer is removed, and the wells are washed three times with 300 μL of PBS. The radioactivity in each well is measured using a Top Count NXT radioactivity counter (Packard).
The background is determined by measuring the radioactivity in four different wells containing radioactive ATP and the substrate alone.
A total activity control is measured in four different wells containing all the reagents (γ^33P-[ATP], KDR and substrate PLCγ), but in the absence of compound.
The inhibition of the KDR activity with the compound of the invention is expressed as a percentage of inhibition of the control activity determined in the absence of compound.
Compound SU5614 (Calbiochem) (1 μm) is included in each plate as an inhibition control.

human Tie2 = target: T3, human Tie2 (Homo sapiens, UniProt Q02763); assay: Tie2 phosphorylation of PLC inhibition, FlashPlate radioactivity; format: biochemical; conditions: GST-Tie2, GST-PLC substrate, one hour at 37° C.; read-out: TIE2 IC 50
T3 construct: amino acids of the intracellular domain 776-1124; made in house; host or cells: baculovirus expression system (pFastBacGT)
T3 sequence (Q02763 776-1124): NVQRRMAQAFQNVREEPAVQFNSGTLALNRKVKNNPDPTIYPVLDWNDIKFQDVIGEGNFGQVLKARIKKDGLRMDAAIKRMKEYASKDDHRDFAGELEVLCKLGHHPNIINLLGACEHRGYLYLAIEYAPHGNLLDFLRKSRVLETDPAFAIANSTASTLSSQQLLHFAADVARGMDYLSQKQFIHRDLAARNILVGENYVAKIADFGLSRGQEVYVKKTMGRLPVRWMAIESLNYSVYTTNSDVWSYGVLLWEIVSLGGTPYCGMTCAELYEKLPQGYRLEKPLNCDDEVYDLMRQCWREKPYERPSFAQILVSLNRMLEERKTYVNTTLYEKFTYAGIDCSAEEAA
Procedure: The coding sequence of human Tie2 corresponding to the amino acids of the intracellular domain 776-1124 was generated by PCR using the cDNA isolated from a human placenta as a model. This sequence was introduced into a pFastBacGT baculovirus expression vector in the form of a GST fusion protein.
The inhibitory effect of the molecules is determined in a test of phosphorylation of PLC with Tie2 in the presence of GST-Tie2 purified to about 80% homogeneity. The substrate is composed of the SH2-SH3 fragments of PLC expressed in the form of a GST fusion protein.
The kinase activity of Tie2 is measured in a MOPS 20 mM pH 7.2 buffer, containing 10 mM MgCl2, 10 mM MnCl2, 1 mM DTT, 10 mM of glycerophosphate. In a 96-well FlashPlate plate maintained on ice, a reaction mixture is deposited, composed of 70 μL of kinase buffer containing 100 ng of enzyme GST-Tie2 per well. Next, 10 μL of the test molecule diluted in DMSO to a maximum concentration of 10% are added. For a given concentration, each measurement is performed four times. The reaction is initiated by adding 20 μL of solution containing 2 μg of GST-PLC, 2 μm of cold ATP and 1 μCi of ^33P[ATP]. After incubation for one hour at 37° C., the reaction is stopped by adding 1 volume (100 μl) of EDTA 200 mM. After removal of the incubation buffer, the wells are washed three times with 300 μL of PBS. The radioactivity is measured on a MicroBeta1450 Wallac.
The inhibition of the Tie2 activity is calculated and expressed as a percentage of inhibition relative to the control activity determined in the absence of compound.

Row | Structure (SMILES) | melting point | IC50 (human FAK) [nM] | IC50 (human KDR enzyme) [nM] | IC50 (human Tie2) [nM]
1 | Cl.NC(=O)c1[nH]cc(N)c1-c1ccc(NC(=O)Nc2cc(C(F)(F)F)ccc2F)cc1 | ~ 174 °C | – | – | –
2 | NC(=O)c1[nH]ccc1-c1ccc(NC(=O)Nc2cc(C(F)(F)F)ccc2F)cc1 [Example 1, 3-{4-[3-(2-Fluoro-5-trifluoromethylphenyl)ureido]phenyl}-1H-pyrrole-2-carboxamide] | – | 2380 | 115 | 13
3 | NC(=O)c1[nH]cc(NC(=O)Nc2cc(C(F)(F)F)ccc2F)c1-c1ccc(NC(=O)Nc2cc(C(F)(F)F)ccc2F)cc1 [Example 4, 4-[3-(2-Fluoro-5-trifluoromethylphenyl)ureido]-3-{4-[3-(2-fluoro-5-trifluoro-methylphenyl)ureido]phenyl}-1H-pyrrole-2-carboxamide] | – | – | 352 | 111
4 | CC(=O)Nc1c[nH]c(C(N)=O)c1-c1ccc(NC(=O)Nc2cc(C(F)(F)F)ccc2F)cc1 [Example 5, 4-Acetylamino-3-{4-[3-(2-fluoro-5-trifluoromethylphenyl)ureido]phenyl}-1H-pyrrole-2-carboxamide] | 228.5 °C | – | – | –
5 | CN(C)CC(=O)Nc1c[nH]c(C(N)=O)c1-c1ccc(NC(=O)Nc2cc(C(F)(F)F)ccc2F)cc1 [Example 6, 4-(2-Dimethylaminoacetylamino)-3-{4-[3-(2-fluoro-5-trifluoromethylphenyl)-ureido]phenyl}-1H-pyrrole-2-carboxamide] | 178 °C | – | – | –
6 | NC(=O)c1[nH]cc(NC(=O)c2ccccc2)c1-c1ccc(NC(=O)Nc2cc(C(F)(F)F)ccc2F)cc1 [Example 7, 4-Benzoylamino-3-{4-[3-(2-fluoro-5-trifluoromethylphenyl)ureido]phenyl}-1H-pyrrole-2-carboxamide] | 239.7 °C | – | – | –
7 | CCOC(=O)c1c[nH]c(C(N)=O)c1-c1ccc(NC(=O)Nc2cc(C(F)(F)F)ccc2F)cc1 [Example 9, Ethyl 5-carbamoyl-4-{4-[3-(2-fluoro-5-trifluoromethylphenyl)ureido]phenyl}-1H-pyrrole-3-carboxylate] | 179 °C | – | 23 | 4
8 | NC(=O)c1[nH]cc(C(=O)O)c1-c1ccc(NC(=O)Nc2cc(C(F)(F)F)ccc2F)cc1 [Example 38, 5-Carbamoyl-4-{4-[3-(2-fluoro-5-trifluoromethylphenyl)ureido]phenyl}-1H-pyrrole-3-carboxylic acid] | 194 °C | – | – | –
9 | NC(=O)c1c[nH]c(C(N)=O)c1-c1ccc(NC(=O)Nc2cc(C(F)(F)F)ccc2F)cc1 [Example 40, 3-{4-[3-(2-Fluoro-5-trifluoromethylphenyl)ureido]phenyl}-1H-pyrrole-2,4-dicarboxamide] | 196 °C | – | – | –
10 | NC(=O)c1[nH]cc(Cl)c1-c1ccc(NC(=O)Nc2cc(C(F)(F)F)ccc2F)cc1 [Example 44, 4-Chloro-3-{4-[3-(2-fluoro-5-trifluoromethylphenyl)ureido]phenyl}-1H-pyrrole-2-carboxamide] | – | – | 27 | 7
11 | NC(=O)c1[nH]cnc1-c1ccc(NC(=O)Nc2cc(C(F)(F)F)ccc2F)cc1 [Example 46, 5-{4-[3-(2-Fluoro-5-trifluoromethylphenyl)ureido]phenyl}-3H-imidazole-4-carboxamide] | 325 °C | – | – | –
